Measured values: US20260315446A1, “ANTIFUNGAL COMPOUNDS AND USES THEREOF” (priority 2023, published 2026)
Converted amounts (≈) assume the structure as drawn. “Also recorded” adds a separate entry of the source. Read-outs that look alike come from different tables or passages of the source.

Legend:
Aspergillus fumigatus = experiment: Broth microdilution MIC/MEC (Example 1); format: cell-based; details: Aspergillus fumigatus; strain Af293; read-out: MEC against Aspergillus fumigatus (Af293)
Procedure: (§1) MICs/minimum effective concentrations (MECs) were determined for each of the novel analogs against the three major human fungal pathogens, A. fumigatus, C. neoformans, and C. albicans. […] Thus, analogs of FK506 and FK520 can tolerate up to 100-fold reduction in antifungal activity and still be considered for in vivo testing. For C. neoformans, MICs were the most uniform and ranged from 0.2 to 2 μg/mL, which is between 4- and 40-fold reduced for antifungal activity.
To assess the antifungal activity against other human fungal pathogens, JH-FK-05 was selected to test against a panel of pathogenic molds and drug-resistant A. fumigatus strains (Table 4). JH-FK-05 registered MECs as low as 1 μg/mL for some of these highly recalcitrant species, such as Mucor circinelloides, Rhizopus oryzae, and pan azole-resistant A. fumigatus (strain F14946).
(§2) In vitro antifungal activities of FK506, FK520, and analogs were assessed in RPMI 1640 (Sigma-Aldrich) for all strains tested. MICs/minimum effective concentrations (MECs) for each drug were measured using modified Clinical and Laboratory Standards Institute (CLSI) M38-A2 and M27-A3 standard in vitro antifungal susceptibility protocols. Broth microdilution assays for MIC/MEC assessment were performed as described previously (see, Juvvadi P R, et al., 2019, Nat Commun 10:4275). All antifungal assays with C. neoformans were performed at 37° C. Antifungal susceptibility testing for C. albicans was performed in the presence of a uniform 1 μg/mL concentration of fluconazole to sensitize the organism to calcineurin inhibition.

[1] = test system: Cryptococcus neoformans (H99); experiment: Broth microdilution MIC (Example 1); format: cell-based; details: for MIC: Cryptococcus neoformans, 37° C., read-out: MIC against Cryptococcus neoformans (H99)
Procedure: as §1, §2

[2] = test system: Candida albicans (SC5314); experiment: Broth microdilution MIC (Example 1); format: cell-based; details: Candida albicans, SC5314; in the presence of 1 μg/mL fluconazole; read-out: MIC against Candida albicans (SC5314)
Procedure: as §1, §2

C. neoformans = experiment: MIC assay (Example 4); format: cell-based, Cryptococcus neoformans; details: for MIC: Cryptococcus neoformans
Procedure: Both JH-FK-10 and JH-FK-11 maintained in vitro antifungal activity against C. neoformans with MICs of 0.8 and 1.6 μg/mL, respectively (Table 11).
In vitro antifungal activity of FK506, FK520, and analogs was assessed in RPMI 1640 (Sigma-Aldrich) for all strains tested. Minimum inhibitory concentrations (MIC) for each drug were measured using modified Clinical and Laboratory Standards Institute (CLSI) M38-A2 and M27-A3 standard in vitro antifungal susceptibility protocols. Broth microdilution assays for MIC assessment were performed as previously described. All antifungal assays with C. neoformans were performed at 37° C.

[3] = test system: IL-2 expression in primary murine CD4+ T cells; experiment: In vitro immunosuppressive activity, IL-2 expression (Example 4); format: cell-based, mouse; details: for IC50: Mus musculus, CD4+ T
Procedure: Spleen and lymph nodes were collected from C57BL/6 mice and homogenized through a 40 μm filter. Pan-CD4^+ T cells were enriched using MagniSort Mouse CD4 T cell Kit (eBioscience) according to the manufacturer's protocol. Thereafter, CD4+CD25−CD44lo CD62Lhi naïve T cells were FACS-sorted. The naïve CD4+ T cells were grown in Iscove's Modified Dulbecco's Medium (IMDM) supplemented with glutamine, penicillin, streptomycin, gentamicin, 2-mercaptoethanol, and 10% FBS. Cells were then cultured on anti-hamster IgG coated plates in the presence of hamster anti-CD3 epsilon and anti-CD28 antibodies (BD Biosciences), neutralizing anti-IL-4 antibody (eBioscience), recombinant IL-12 (10 ng/mL), and recombinant IL-2 (50 U/mL) for 72 h. During this period, cells were grown in the presence of 2× serially diluted FK506, FK520, or analog suspended in DMSO for 72 h. During the last 4 h of culture, phorbol 12-myristate 13-acetate (PMA; Sigma), ionomycin (Sigma), and GolgiStop (BD Biosciences) were added to the culture to facilitate detection of intracellular cytokines via flow cytometry.
Live cells were stained with FITC-conjugated anti-CD4 antibody (eBioscience) and Fixable Viability Dye eFluor 506 (eBioscience) on ice, followed by fixation and permeabilization using the Foxp3 Transcription Factor Staining Kit (eBioscience). Intracellular staining was performed at room temperature using PE-conjugated anti-IL-2 antibody (eBioscience), followed by analysis with a BD LSRFortessa X-20 flow cytometer.

[4] = test system: C. neoformans growth versus IL-2 in murine T cells; experiment: Therapeutic index score (immunosuppressive fold change to antifungal fold change relative to FK506); parameters: species or system Cryptococcus neoformans; mouse; details: Table 12, Example 4; FK506 = 1.0
From the text: To assess the therapeutic potential for these compounds, it was important to develop an approach to score and rank them based on antifungal and immunosuppressive activities. The therapeutic index score (TIscore) is a ratio of the immunosuppressive fold change to the antifungal fold change, with all values relative to the baseline FK506 activity (FIG. 6B). A TIscore of >1.0 indicates an increase in fungal specificity because the fold change of the immunosuppressive reduction is greater than the antifungal activity reduction. As an example, JH-FK-05 is 20-fold reduced for antifungal activity but about 180-fold reduced for immunosuppression. Therefore, the TIscore of JH-FK-05 is 9.1 (TIscore=182/20). The top two analogs were JH-FK-02 (TIscore=9.7) and JH-FK-05 (TIscore=9.1). Due to the similar TIscore, JH-FK-05 was prioritized to advance to animal trials on the merit of more pronounced antifungal activity compared to JH-FK-02.
Based on the in vitro fungal and mammalian calcineurin inhibition data, the panel of FK520 analogs was assessed and ranked. Therapeutic index (TI) scores were used to quantify the effects of structural modification on the compounds (Table 8). Therapeutic index scores were calculated for each analog as the ratio of relative change in immunosuppressive and antifungal activities compared to FK506 as previously utilized (see, I-Toy M J, et at. 2022. mBio 13:e0104922). This ratio of therapeutic benefit and host toxicity, or fungal and mammalian calcineurin inhibition, allowed us to quantify and rank these analogs. […] This is the greatest TI found within the library and allowed us to identify JH-FK-08 as a lead candidate for an in vivo study. Tolerability of JH-FK-08 was assessed by monitoring animal responses to drug dosing across 14 days, including changes in weight, fur condition, and behavior. A maximum dose of 40 mg/kg was tested in once a day dosing, and due to solubility limitations, the tolerability of JH-FK-08 at 60 and 80 mg/kg total daily doses was assessed by dosing two equal doses per day (FIG. 14). […] It should be noted that analogs JH-FK-12 and JH-FK-23 are also promising candidates with respective Tis of 24.7 and 24.5.

SMILES | minimal effective concentration (Aspergillus fumigatus) | MIC [1] | MIC [2] | further results
C=CC[C@@H]1/C=C(\C)C[C@H](C)C[C@H](OC)[C@H]2O[C@@](O)(C(=O)C(=O)N3CCCC[C@H]3C(=O)O[C@H](/C(C)=C/[C@@H]3CC[C@@H](O)[C@H](OC)C3)[C@H](C)[C@@H](O)C/C1=N/NC(C)=O)[C@H](C)C[C@@H]2OC [JH-FK-01] | 1 µg/mL | 1 µg/mL (≈ 1.16 µM) | 0.4 µg/mL | 
C=CC[C@@H]1/C=C(\C)C[C@H](C)C[C@H](OC)[C@H]2O[C@@](O)(C(=O)C(=O)N3CCCC[C@H]3C(=O)O[C@H](/C(C)=C/[C@@H]3CC[C@@H](O)[C@H](OC)C3)[C@H](C)[C@@H](O)C/C1=N/NC(=O)c1ccccc1)[C@H](C)C[C@@H]2OC [JH-FK-03] | 1 µg/mL | 1 µg/mL (≈ 1.08 µM) | 0.8 µg/mL | 
CC[C@@H]1/C=C(\C)C(O)[C@H](C)C[C@H](OC)[C@H]2O[C@@](O)(C(=O)C(=O)N3CCCC[C@H]3C(=O)O[C@H](/C(C)=C/[C@@H]3CC[C@@H](O)[C@H](OC)C3)[C@H](C)[C@@H](O)CC1=O)[C@H](C)C[C@@H]2OC (some centres unmarked) [JH-FK-10] |  |  |  | MIC (C. neoformans; 37° C., Table 11, read-out: C. neoformans MIC): 0.8 µg/mL (≈ 0.99 µM); MIC (C. neoformans; read-out: C. neoformans MIC, 37° C., Table 12): 0.8 µg/mL (≈ 0.99 µM); immunosuppressive activity [3]: detectable immunosuppressive activities; IC50 ([3]; Table 12): 5.7 nM; Therapeutic Index Score [4]: 3.2
CC[C@@H]1/C=C(\C)C[C@H](C)C[C@H](OC)[C@H]2O[C@@](O)(C(=O)C(=O)N3CCCC[C@H]3C(=O)O[C@H](/C(C)=C/[C@@H]3CC[C@@H](O)[C@H](OC)C3)[C@H](C)[C@@H](O)C/C1=N/NC(=O)C(F)(F)F)[C@H](C)C[C@@H]2OC [JH-FK-07] | 1.25 µg/mL | 0.2 µg/mL (≈ 0.222 µM) | 0.2 µg/mL | broad-spectrum antifungal activity / MIC ranking ([1]; C. neoformans, C. albicans, A. fumigatus): maintained high levels of broad-spectrum antifungal activity across the three species; also recorded: had the lowest MICs for both C. neoformans and C. albicans
C=CC[C@@H]1/C=C(\C)C[C@H](C)C[C@H](OC)[C@H]2O[C@@](O)(C(=O)C(=O)N3CCCC[C@H]3C(=O)O[C@H](/C(C)=C/[C@@H]3CC[C@@H](O)[C@H](OC)C3)[C@H](C)[C@@H](O)CC1=NNC(=O)CN(C)C)[C@H](C)C[C@@H]2OC [JH-FK-04] | 2 µg/mL | 2 µg/mL (≈ 2.21 µM) | 6.25 µg/mL | 
CC[C@@H]1/C=C(\C)C(O)[C@H](C)C[C@H](OC)[C@H]2O[C@@](O)(C(=O)C(=O)N3CCCC[C@H]3C(=O)O[C@H](/C(C)=C/C3CC[C@@H](O)[C@H](OC)C3)[C@H](C)[C@@H](O)C/C1=N/NC(C)=O)[C@H](C)C[C@@H]2OC (some centres unmarked) [JH-FK-18] |  |  |  | C. neoformans MIC (C. neoformans; 37° C., Table 13): >50 µg/mL; MIC (C. neoformans; 37° C., Table 13, read-out: C. neoformans MIC): > 50 µg/mL; antifungal activity (C. neoformans; up to a maximum concentration of 50 μg/mL): no detectable antifungal or immunosuppressive activity; also recorded: no detectable biological activity; IL-2 production ([3]; 200 nM): no changes in IL-2 production; IC50 ([3]; Table 13): > 200 nM
